Test results from US11661409B1, “Acid addition salts, compositions, and methods of treating” (Pioneura Corporation, priority 2022, dated 2023).
“Also recorded” adds a separate entry of the source. Like-named read-outs stand apart in the source and are kept apart here. Values belong to the compound of their own block, whether it stands above or below them.

Assays:
[1] = Pharmacokinetics of aqueous suspensions in mice; conditions: for Cmax: equimolar dose 10 mg/kg of free base, plasma Compound 1
Method: (§1) Blood was sampled with microbleeds frequently to produce the pharmacokinetics curves (AUCs).
(§2) The dosing suspension was analyzed before administration to the animals to ensure that the actual concentration was known.

[2] = mice; cited from earlier work
[3] = Solubility in methanol, ethanol, 95% ethanol; type: physicochemical
Excerpt: Dual solvent systems were used, comprising methanol and ether, by dissolving the salt in a small volume of methanol and then adjusting the solubility by adding ether to the point of slight cloudiness. These samples then remained in the reaction vessel as needed to precipitate.

[4] = Solubility and plasma levels of Compound 1 (general statements); type: physicochemical
Excerpt: There is a significant, unmet need for means to administer Compound 1 to treat diseases or disorders, such as diseases or disorders associated with neuroinflammation. The present disclosure fulfills these and other needs, as evident in reference to the following disclosure.
To improve solubility, attempts to prepare acid addition salts from suitably acidic carboxylic acids (e.g., fumaric acid, maleic acid, citric acid, tartaric acid), standard mineral acids (e.g., hydrobromic acid, sulfuric acid, phosphoric acid), and sulfonic acids (e.g., toluenesulfonic acid, methanesulfonic acid, ethanesulfonic acid, benzenesulfonic acid), were conducted.

[5] = mouse, in vivo, 10 mg/kg
Method: as §1, §2

[6] = Dissolution behaviour in water; type: physicochemical
Method: Pharmaceutically acceptable salts were prepared using tartaric acid, fumaric acid, and phosphoric acid.

[7] = mice, aqueous suspension, 10 mg/kg of free base, 10 mg/kg
[8] = mice, aqueous suspension, 10 mg/kg of free base

- Mean plasma concentration at 0.33 hr ([1]; mice, aqueous suspension, 10 mg/kg of free base, 0.33 hr, 10 mg/kg): LLQ
- Mean plasma concentration at 1.0 hr [1, 7]: 1.91 ng/mL
- Mean plasma concentration at 1.5 hr [1, 7]: 10.0 ng/mL
- concentration at 0.67 h ([1]; mouse, plasma, oral, 10 mg/kg, Mean plasma concentration at 0.67 hr, mice, aqueous suspension, 10 mg/kg of free base, 0.67 hr): 1.46 ng/mL
- concentration at 2 h ([1]; mouse, plasma, oral, 10 mg/kg, Mean plasma concentration at 2.0 hr, mice, aqueous suspension, 10 mg/kg of free base, 2.0 hr): 20.4 ng/mL
- concentration at 4 h ([1]; mouse, plasma, oral, 10 mg/kg, Mean plasma concentration at 4.0 hr, mice, aqueous suspension, 10 mg/kg of free base, 4.0 hr): 46.9 ng/mL
- Tmax ([1]; mouse, plasma, po, 10 mg/kg): 6 h
- AUC(0-t) ([1]; mouse, plasma, po, 10 mg/kg, AUClast, mice, aqueous suspension, 10 mg/kg of free base, 6-hour study): 181 ng·h/mL
- Cmax ([1]; mouse, plasma, po, 10 mg/kg, Cmax, mice, aqueous suspension): 56.3 ng/mL
- plasma serum levels upon administration without excipients such as DMSO [4]: only low plasma serum levels
Compound: CN1CCN(Cc2ccc(-c3cnc4[nH]cc(-c5ccc6[nH]ccc6c5)c4c3)cc2)CC1 [Compound 1, 3-(1H-indol-5-yl)-5-[4-[(4-methyl-1-piperazinyl)methyl]phenyl]-1H-pyrrolo[2,3-b]pyridine]
- pharmacokinetic properties and CNS penetration [2]: excellent pharmacokinetic properties and central nervous system (CNS) penetration
- solubility in methanol, ethanol or 95% ethanol ([3]; listed as free base): not very soluble in methanol, ethanol, or 95% ethanol at room temperature
- solubility in water / aqueous and organic carriers [4]: insoluble in water; also recorded: limited solubility in typical aqueous and organic carriers

- Tmax [1, 8]: 6.00 h
- AUClast ([1]; mice, aqueous suspension, 10 mg/kg of free base, 6-hour study, 10 mg/kg): 230 ng·h/mL
- Mean plasma concentration at 0.67 hr ([1]; mice, aqueous suspension, 10 mg/kg of free base, 0.67 hr, 10 mg/kg): 2.71 ng/mL
- Mean plasma concentration at 1.0 hr [1, 7]: 7.32 ng/mL
- Mean plasma concentration at 1.5 hr [1, 7]: 21.9 ng/mL
- Mean plasma concentration at 2.0 hr ([1]; mice, aqueous suspension, 10 mg/kg of free base, 2.0 hr, 10 mg/kg): 31.7 ng/mL
- Mean plasma concentration at 4.0 hr ([1]; mice, aqueous suspension, 10 mg/kg of free base, 4.0 hr, 10 mg/kg): 48.3 ng/mL
- Cmax ([1]; mice, aqueous suspension, 10 mg/kg): 78 ng/mL
- concentration at 0.33 h ([1]; mouse, plasma, oral, 10 mg/kg, Mean plasma concentration at 0.33 hr, mice, aqueous suspension, 10 mg/kg of free base, 0.33 hr): 0.679 ng/mL
- solubility in methanol, ethanol or 95% ethanol ([3]; listed as Phosphoric Acid): low in methanol
Compound: CN1CCN(Cc2ccc(-c3cnc4[nH]cc(-c5ccc6[nH]ccc6c5)c4c3)cc2)CC1 [Phosphate, 3-(1H-indol-5-yl)-5-[4-[(4-methyl-1-piperazinyl)methyl]phenyl]-1H-pyrrolo[2,3-b]pyridine]
- exposure compared with free base [1, 8]: superior to the free base in key pharmacokinetic measures
- solubility in methanol, ethanol or 95% ethanol [3]: least soluble in methanol of the three salts tested

- solubility in methanol, ethanol or 95% ethanol [3]: dissolved readily in hot methanol
Compound: CN1CCN(Cc2ccc(-c3cnc4[nH]cc(-c5ccc6[nH]ccc6c5)c4c3)cc2)CC1 [Fumarate, 3-(1H-indol-5-yl)-5-[4-[(4-methyl-1-piperazinyl)methyl]phenyl]-1H-pyrrolo[2,3-b]pyridine]

- AUClast [5]: 259 ng·h/mL
- Cmax [5]: 66.9 ng/mL
- Mean plasma concentration at 0.33 hr [5]: 4.24 ng/mL
- Mean plasma concentration at 0.67 hr [5]: 8.2 ng/mL
- Mean plasma concentration at 1.0 hr [5]: 15.2 ng/mL
- Mean plasma concentration at 1.5 hr [5]: 31.4 ng/mL
- Mean plasma concentration at 2.0 hr [5]: 38.8 ng/mL
- Mean plasma concentration at 4.0 hr [5]: 63.4 ng/mL
- Tmax [5]: 4.67 h
- kinetic dissolution in water [6]: fastest to kinetically dissolve
Compound: tartrate salt of 3-(1H-indol-5-yl)-5-[4-[(4-methyl-1-piperazinyl)methyl]phenyl]-1H-pyrrolo[2,3-b]pyridine
